Where “and” joins values, the source holds several entries; their conditions need not be identical. Equal entries are not always repeated. Square brackets hold non-standard residues; d marks the D form. Peptide text beside a SMILES is read from it.
Columns and labels:
Anti-OVA antibody titers = test: Adjuvant activity, anti-OVA antibody titers by ELISA (Example 8); format: in vivo, Balb/c mice; conditions: for Stimulation index / Anti-protein antibody titer / Pool: Table 8; for Anti-protein antibody titer: one value per mouse; for Pool: pooled sera titer
Method: Adjuvant activity was tested on 11 groups of Balb/c mice (obtained from Stolbovaya Breeding Station). Each group consisted of 7 animals. Three immunizations were performed as follows:
• Group 1—ovalbumin 25 micrograms per animal (Mouse Nos. 1 to 7) • Group 2—ovalbumin 25 micrograms per animal+CFA (Complete Freund's adjuvant) (Mouse Nos. 8 to 14) • Group 3—ovalbumin 25 micrograms per animal+adjuvant of compound 33a 100 micrograms per animal (Mouse Nos. 15 to 21) • Group 4—ovalbumin 25 micrograms per animal+adjuvant of compound 33a 10 micrograms per animal (Mouse Nos. […]) • Group 5—ovalbumin 25 micrograms per animal+adjuvant of compound 33a 1 microgram per animal (Mouse Nos. […]) • Group 6—ovalbumin 25 micrograms per animal+adjuvant of compound 33b 100 micrograms per animal (No. 36 to 42) • Group 7—ovalbumin 25 micrograms per animal+adjuvant of compound 33b 10 micrograms per animal (Mouse Nos. 43 to 49) • Group 8—ovalbumin 25 micrograms per animal+adjuvant of compound 33b 1 microgram per animal (Mouse Nos. 50 to 56) • Group 9—ovalbumin 25 micrograms per animal+adjuvant of compound 17 100 micrograms per animal (Mouse Nos. 57 to 63) • Group 10—ovalbumin 25 micrograms per animal+adjuvant of compound 1710 micrograms per animal (Mouse Nos. 64 to 70) • Group 11—ovalbumin 25 micrograms per animal+adjuvant of compound 171 microgram per animal (Mouse Nos. 71 to 77) Second Immunization:
The same set 14 days after first immunization by injection of 12.5 micrograms of ovalbumin/mouse to mouse nos. 1 to 77.
The same set 28 days after first immunization by injection of 12.5 micrograms of ovalbumin/mouse to mouse nos. 1 to 77.
On day 35 after first immunization, blood samples from each mouse were collected.
OVA (10 micrograms/ml) solution in 0.05 M sodium carbonate buffer (pH 9.5) was added to plate wells, 0.1 ml per well and incubated at 4° C. for 16 hours. The OVA solution was then removed and the plate was washed 4 times with PBS containing 0.05% Tween-20. Such washing was performed after each incubation stage. Serial twofold dilutions of sera (starting from 1:100 or 1:1000) were added to the wells, 0.1 ml per well and incubated at 37° C. for 1 hour followed by incubation (1 hour, 37° C.) with HRP-conjugated goat anti-mouse IgG antibodies (0.1 ml, 1 mg/ml in PBS) and then with a 0.1 mL substrate solution −0.05% H2O2 and 0.05% o-phenylene diamine in 0.05M sodium citrate buffer with a pH of 4.5. The reaction was stopped by adding 100 μl of 12.5% H2SO4. Absorbance was measured at a wavelength of 492 nm using a Multiscan Plus MKII (Flow Laboratories, Great Britain). Significant anti-protein antibody titer (for individual sera) was assessed as the serum dilution produced an absorbance value of more than 0.1 ODU and the minimum exceeds three times the control level. The antibody titer was presented and −log of dilution (FIGS. 2 and 3). The stimulation index for pooled sera was calculated by dividing the test pooled sera dilution producing OD=1 by the dilution of pooled sera from mice immunized without the adjuvant, producing OD=1. The results of the adjuvant activities of cyclo-L-Ala-L-Glu-(L-Trp-OH) (Compound 17), cyclo-L-Lys(N-acetyl-Glycosamine-N-acetyl-muramil)-L-Glu-(L-Trp-OH) (Compound 33a) and cyclo-D-Lys(N-acetyl-Glycosamine-N-acetyl-muramil)-D-Glu-(L-Trp-OH) (Compound 33b) are shown in Table 7 and the adjuvant activities of cyclo [L-Lys(Palmitoyil)-L-Glu(D-Trp-OH)] (Compound 26a) and cyclo [D-Lys(Palmitoyil)-D-Glu(D-Trp-OH)] (Compound 26b) are shown in Table 8 as well as in FIG. 4 which includes the results of the adjuvant activities of cyclo-L-Lys-L-Glu-(L-Trp-OH) (compound 19). It is noted that the peptides of compounds 26a and 26b are soluble in 0.1% NH4OH at a concentration of 1 mg per 1 to 2 ml.

[1] = Solubility of peptides in 0.1% NH4OH; format: physicochemical; conditions: for solubility when titrated with 0.1% AcOH: titrated with 0.1% AcOH to pH=8.4 to 8.5
BALB/c male mice = test: Antinociceptive activity, tail flick test with heat radiation, intragastral or intraperitoneal; format: in vivo
Method: For estimation of oral activity of novel cyclopeptides of the present invention, the “tail flick” test was used. The results were compared with those obtained using intraperitoneal administration.
Antinociceptive activity of the peptides of the present invention was assessed in experiments on BALB/c male mice weighing 22 to 24 g. The peptides were dissolved in saline and administered intraperitoneally or intragastrally.
The “Tail flick” test (D'Amour, F. E. et al. “A Method for Determining Loss of Pain Sensation”, J. Pharmacol. Exp. Ther., Vol. 72, Pages 74 to 79, 1941) was performed on an analgesimeter type 812, Hugo Sachs Electronick KG. Antinociceptive activity was defined as the absence of tail flick response on stimulation with a focused bundle of heat radiation with 6 sec at baseline response of 2.0-3.0 seconds.
Statistical treatment of the results was carried out by the Student's paired t-test.

mice F1(CBAxC57D16) = test: Analgesic activity, tail flick test, water 48° C., intraperitoneal; format: in vivo; conditions: Table 10; for Initial sensitivity level: before injection
Method: Two hundred and twenty mice F1(CBAxC57D16) first generation hybrids were used for testing of analgesic activity using the “tail flick” test. The water temperature was at 48° C. The maximal effect was for the period of 30 seconds. All peptides were injected intraperitoneally in the doses of 5, 10 or 20 mg/kg. Analgesic effect was estimated in the time interval of 15 to 120 min after peptide injection. Student's t-criterion was used for statistical calculations of the results. Statistical significance were at the level of p≦0.05.

[2] = molecular target: μ-receptor (isolated guinea pig ileum, GPI) (Cavia porcellus, UniProt P97266); test: Peripheral opioid activity: inhibition of electrically-induced contractions of isolated guinea pig ileum (GPI)
Chain of μ-receptor (isolated guinea pig ileum, GPI) (P97266 whole entry): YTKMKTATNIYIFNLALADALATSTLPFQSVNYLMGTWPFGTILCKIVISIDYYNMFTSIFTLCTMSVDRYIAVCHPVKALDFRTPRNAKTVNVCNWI
Method: The segment of GPI about 1 cm long was placed into a 10-ml organ bath containing Krebs solution at 34° C. […] Resting tension of the organ was 1 g. The segment of GPI was stimulated by single pulses duration 1 ms with 0.1 Hz at 80 V. The solution with isolated organs was constantly aerated. The contractions were recorded in an isometrical mode by a sensor K 30 (Hugo Sachs Elektronic KG) with paper register Rikadenki-series (Japan).
The substances tested were dissolved in distilled water and added cumulatively to the organ bath at a volume of 5 to 30 mcl. Each subsequent substance was added after the isolated organs were washed 3 or 4 times for 12-15 min. On the basis of the data obtained, dose-effects curves were plotted and the activity of substances was expressed by IC50 or pD2. The pD2 index was equal to a negative decimal logarithm of the substance concentration causing a 50% of the maximal effect.
New dermorphin analogues were tested in the standard model of Guinea pig ileum binding test.
For confirmation of opioid activity, the specific antagonist naloxson was used in concentration of 10^−5M. Each molecule was tested in 5 independent replications and relative activity was calculated as negative logarithm of EC50 (pD2).

[3] = tested on: hemopoietic precursor cells; test: Exogenous spleen colonies from bone marrow irradiated ex vivo with 1 Gy; format: in vivo
Method: In this study, the method of exogenous spleen colonies was applied. A suspension of intact bone marrow cells was irradiated ex vivo in the dose of 1 Gy. Different doses of Neogen or cyclic peptides were injected IP, 1M, subcutaneous or introduced per os to lethally irradiated recipients within an hour after the injection of irradiated bone marrow. Colonies were counted on day 8. All data in each group was the mean of three tests.

[4] = 100 μg per animal, no adjuvant = 1
[5] = OVA + adjuvant 10 μg per animal
[6] = OVA + adjuvant 100 μg per animal
[7] = 100 μg per animal, no adjuvant 3.9

CCCCCCCCCCCCCCCC(=O)NCCCC[C@H]1NC(=O)[C@@H](CCC(=O)N[C@H](Cc2c[nH]c3ccccc23)C(=O)O)NC1=O [Compound 26b, cyclo [D-Lys(Palmitoyil)-D-Glu(D-Trp-OH)]]
adjuvant activity (FIG. 4), doses at which active (Anti-OVA antibody titers): not an active compound
Stimulation index (Anti-OVA antibody titers; 1 μg per animal): 4.9
Stimulation index (Anti-OVA antibody titers; 10 μg per animal): 2.7
Stimulation index (Anti-OVA antibody titers; [4]): 2.6
Anti-protein antibody titer (Anti-OVA antibody titers; OVA + adjuvant 1 μg per animal): 5.4 (2×) and 4.5 and 3.8 and 3.5 and 5.1
Anti-protein antibody titer (Anti-OVA antibody titers; [5]): 4.7 (3×) and 5.1 and 4.8 (2×)
Anti-protein antibody titer (Anti-OVA antibody titers; [6]): 4.5 (2×) and 4.8 (3×) and 4.2
Pool (Anti-OVA antibody titers; 1 μg per animal): 5.1
Pool (Anti-OVA antibody titers; 10 μg per animal): 4.8
Pool (Anti-OVA antibody titers; [7]): 4.8
soluble in 0.1% NH4OH at a concentration of [1]: 1 mg per 1 to 2 ml
solubility when titrated with 0.1% AcOH [1]: remain soluble

CCCCCCCCCCCCCCCC(=O)NCCCC[C@@H]1NC(=O)[C@H](CCC(=O)N[C@H](Cc2c[nH]c3ccccc23)C(=O)O)NC1=O [Compound 26a, cyclo [L-Lys(Palmitoyil)-L-Glu(D-Trp-OH)]]
adjuvant activity (FIG. 4), doses at which active (Anti-OVA antibody titers): active at 10 μg/kg
Stimulation index (Anti-OVA antibody titers; 1 μg per animal): 2.0
Stimulation index (Anti-OVA antibody titers; 10 μg per animal): 6.5
Stimulation index (Anti-OVA antibody titers; [4]): 3.3
Anti-protein antibody titer (Anti-OVA antibody titers; OVA + adjuvant 1 μg per animal): 4.8 and 5.1 (4×) and 4.5 and 4.4
Anti-protein antibody titer (Anti-OVA antibody titers; [5]): 5.5 (4×) and 5.8 and 5.7 (2×)
Anti-protein antibody titer (Anti-OVA antibody titers; [6]): 4.8 (4×) and 4.4 and 5.1 and 5.4
Pool (Anti-OVA antibody titers; 1 μg per animal): 4.4
Pool (Anti-OVA antibody titers; 10 μg per animal): 5.7
Pool (Anti-OVA antibody titers; [7]): 5.1
soluble in 0.1% NH4OH at a concentration of [1]: 1 mg per 1 to 2 ml
solubility when titrated with 0.1% AcOH [1]: remain soluble

CNC(=O)[C@H](CO)NC(=O)[C@@H]1CCCN1C(=O)[C@H](Cc1ccc(O)cc1)NC(=O)[C@@H](C)NC(=O)[C@H](Cc1ccccc1)NC(=O)[C@@H](C)NC(=O)[C@@H](N)Cc1ccc(O)cc1 [Compound 50, H-Tyr-D-Ala-Phe-D-Ala-Tyr-Pro-Ser-NH-CH3, reference compound] (H-Y[dA]F[dA]YPS-NHMe)
Initial sensitivity level, mean (BALB/c male mice; Table 11, oral 50 mg/kg group, before administration): 2.6 ± 0.1 s
Effect duration (BALB/c male mice; Table 11, oral 50 mg/kg, 15 min, cut-off 6 sec): 3.3 ± 0.6 s
Effect duration (BALB/c male mice; Table 11, oral 50 mg/kg, 30 min): 2.3 ± 0.1 s
Effect duration (BALB/c male mice; Table 11, oral 50 mg/kg, 90 min): 4.3 ± 0.6 s
Initial sensitivity level, mean (BALB/c male mice; Table 12, intraperitoneal 10 mg/kg group, before injection): 2.0 ± 0.1 s
Effect duration (BALB/c male mice; Table 12, intraperitoneal 10 mg/kg, 15 min, cut-off 6 sec): 3.6 ± 0.7 s
Initial sensitivity level (mice F1(CBAxC57D16); 5 mg/kg group): 3.0 ± 0.1 s
Effect duration (mice F1(CBAxC57D16); 5 mg/kg i.p., 15 min after injection): 9.0 ± 1.7 s
Effect duration (mice F1(CBAxC57D16); 5 mg/kg i.p., 30 min): 10.3 ± 2.6 s
Effect duration (mice F1(CBAxC57D16); 5 mg/kg i.p., 45 min): 14.3 ± 3.7 s
Effect duration (mice F1(CBAxC57D16); 5 mg/kg i.p., 60 min): 10.8 ± 1.9 s
Effect duration (mice F1(CBAxC57D16); 5 mg/kg i.p., 90 min): 6.4 ± 1.5 s
Effect duration (mice F1(CBAxC57D16); 5 mg/kg i.p., 120 min): 3.5 ± 0.2 s
Initial sensitivity level (mice F1(CBAxC57D16); 10 mg/kg group): 2.9 ± 0.2 s
Effect duration (mice F1(CBAxC57D16); 10 mg/kg i.p., 15 min): 5.9 ± 0.7 s
Effect duration (mice F1(CBAxC57D16); 10 mg/kg i.p., 30 min): 10.7 ± 0.8 s
Effect duration (mice F1(CBAxC57D16); 10 mg/kg i.p., 45 min): 12.2 ± 2.6 s
Effect duration (mice F1(CBAxC57D16); 10 mg/kg i.p., 60 min): 7.2 ± 1.2 s
Effect duration (mice F1(CBAxC57D16); 10 mg/kg i.p., 90 min): 6.9 ± 1.4 s
Effect duration (mice F1(CBAxC57D16); 10 mg/kg i.p., 120 min): 3.7 ± 0.4 s
Value of pD2 (M ± m) ([2]; negative logarithm of EC50): 7.95 ± 0.07
EC50 ([2]; read-out: Median EC50 in M, concentration reducing contraction amplitude by 50%, 5 replications): 9.5 nM

COC(=O)[C@H](Cc1c[nH]c2ccccc12)NC(=O)CC[C@@H]1NC(=O)[C@H](C)NC1=O [Compound 16, Cyclo-L-Ala-L-Glu-(L-Trp-OMe)]
% stimulation ([3]; 100 μg/kg per/os): 74.8%
Colony count ([3]; 100 μg/kg per/os): 8.9 ± 0.5
% stimulation ([3]; 100 μg/kg s/c): 67.2%
Colony count ([3]; 100 μg/kg s/c): 8.0 ± 0.5

Reference: patent US8637521B2, “Substituted piperazin-2,5-diones and their use as multifunctional bioactive compounds” (priority 2006, dated 2014)
